Here are results for 54 compounds from ChEMBL document CHEMBL2094195, “Structure-activity relationship data for a series of N-(phenylmehtyl)-2-(1H-pyrazol-4-yl)acetamide and N-(phenylmethyl)2-(4-isoxazolyl) acetamide antagonists of the P2X7 receptor (Supplementary Bioactivity Data for publication CHEMBL1157114)”.

The structures appear in SMILES notation.

This assay concerns the target T1, P2X purinoceptor 7 (Homo sapiens, UniProt Q99572).
T1 sequence (Q99572 whole entry): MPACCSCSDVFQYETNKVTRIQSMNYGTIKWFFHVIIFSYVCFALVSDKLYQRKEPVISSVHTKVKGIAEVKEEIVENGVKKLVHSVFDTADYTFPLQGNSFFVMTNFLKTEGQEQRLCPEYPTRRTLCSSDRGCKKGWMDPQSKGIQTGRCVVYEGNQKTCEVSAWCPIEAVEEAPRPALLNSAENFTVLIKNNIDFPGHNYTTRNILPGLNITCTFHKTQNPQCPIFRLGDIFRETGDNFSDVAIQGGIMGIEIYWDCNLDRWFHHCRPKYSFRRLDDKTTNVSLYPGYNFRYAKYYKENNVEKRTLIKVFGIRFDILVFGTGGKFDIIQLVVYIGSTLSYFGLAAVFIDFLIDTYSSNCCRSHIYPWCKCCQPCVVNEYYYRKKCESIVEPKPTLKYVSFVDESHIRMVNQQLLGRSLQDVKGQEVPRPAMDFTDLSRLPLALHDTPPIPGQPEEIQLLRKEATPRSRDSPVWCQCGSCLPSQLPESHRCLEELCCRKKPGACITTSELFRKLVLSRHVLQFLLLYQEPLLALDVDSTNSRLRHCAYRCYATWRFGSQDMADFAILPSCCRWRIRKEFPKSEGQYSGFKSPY
Description: SUPPLEMENTARY: Inhibition of human P2X7 receptor assessed as inhibition of ethidium bromide accumulation. Same assay as CHEMBL1103860.
Usually IC50 stands for the midpoint of a concentration-inhibition curve. As for `Cc1n[nH]c(C)c1CC(=O)N[C@H]1CCCc2ccccc21`, the IC50 is 100 nM. The same measure for `Cc1n[nH]c(C)c1CC(=O)NCc1ccc(F)c(F)c1F`: 63.1 nM; for `Cc1n[nH]c(C)c1CC(=O)NCc1ccccc1Br`: 251 nM; for `Cc1n[nH]c(C)c1CC(=O)NCc1ccc(Cl)c(Cl)c1`: 200 nM. Consider `Cc1n[nH]c(C)c1CC(=O)NCc1cc(Cl)cc(Cl)c1`, for which the IC50 is 1000 nM. With `Cc1n[nH]c(C)c1CC(=O)NCc1c(Cl)cccc1Cl`, the IC50 is 31.6 nM. As to `Cc1cccc(Cl)c1CNC(=O)Cc1c(C)n[nH]c1C`, the IC50 is 15.8 nM. Turning to `Cc1n[nH]c(C)c1CC(=O)NCc1cc(F)ccc1Cl`, the IC50 is 398 nM.

Take `Cc1[nH]nc(C(C)(C)C)c1CC(=O)NCc1ccc(F)cc1Cl`: the IC50 was 158 nM. For `Cc1noc(C)c1CC(=O)NCc1ccc(F)c(F)c1F` the value was 158 nM; for `Cc1n[nH]c(C)c1CC(=O)NCc1cccc(Cl)c1C`, 5.01 nM; for `Cc1n[nH]c(C)c1CC(=O)NCc1c(F)cccc1Cl`, 158 nM. For `Cc1n[nH]c(C)c1CC(=O)NCc1cc(Cl)ccc1Cl` the value was 316 nM. In the case of `Cc1cccc(Cl)c1CNC(=O)Cc1c(C)noc1C`, the IC50 is 25.1 nM. Take `Cc1noc(C)c1CC(=O)NCc1cccc(Cl)c1C`: the IC50 is 25.1 nM. The same measure for `Cc1noc(C)c1CC(=O)NCc1ccc(Cl)c(Cl)c1`: 316 nM; for `Cc1noc(C)c1CC(=O)NCc1ccccc1Br`: 501 nM; for `Cc1noc(C)c1CC(=O)NCc1ccccc1Cl`: 100 nM. For `Cc1noc(C)c1CC(=O)NCc1c(F)cccc1Cl` the value was 398 nM. Regarding `Cc1noc(C)c1CC(=O)NCc1c(Cl)cccc1Cl`, the IC50 was 63.1 nM.

`Cc1noc(C)c1CC(=O)NCc1ccc(Cl)c(C(F)(F)F)c1`: the IC50 is 158 nM. The same measure for `Cc1noc(C)c1CC(=O)NCc1ccc(F)cc1C(F)(F)F`: 200 nM; for `Cc1n[nH]c(C)c1CC(=O)NCc1ccc(C(F)(F)F)cc1`: 398 nM; for `Cc1noc(C)c1CC(=O)NCc1ccc(F)cc1Br`: 50.1 nM. For `Cc1noc(C)c1CC(=O)NCc1ccc(F)c(F)c1Cl` the value was 31.6 nM. For `Cc1ccccc1CNC(=O)Cc1c(C)noc1C` the value was 501 nM. Consider `Cc1noc(C)c1CC(=O)NCc1cccc(Cl)c1Cl`, for which the IC50 was 31.6 nM. `Cc1noc(C)c1CC(=O)NCc1ccc(F)cc1F`: the IC50 is 501 nM. The same measure for `Cc1ccc(CNC(=O)Cc2c(C)n[nH]c2C)c(C)c1`: 158 nM. For `Cc1ccc(F)c(CNC(=O)Cc2c(C)n[nH]c2C)c1Cl` the value was 79.4 nM.

`Cc1n[nH]c(C)c1CC(=O)NCc1ccc(Br)cc1F`: the IC50 was 50.1 nM. The same measure for `Cc1noc(C)c1CC(=O)NCc1ccc(Cl)cc1`: 794 nM; for `Cc1ccc(CNC(=O)Cc2c(C)noc2C)c(C)c1`: 251 nM. As for `Cc1ccc(Cl)c(CNC(=O)Cc2c(C)n[nH]c2C)c1F`, the IC50 was 631 nM. The same measure for `Cc1ccc(CNC(=O)Cc2c(C)noc2C)c(F)c1F`: 794 nM; for `Cc1cc(Cl)ccc1CNC(=O)Cc1c(C)noc1C`: 25.1 nM; for `Cc1cc(F)ccc1CNC(=O)Cc1c(C)noc1C`: 100 nM. The same measure for `Cc1noc(C)c1CC(=O)NCc1cccc(F)c1C`: 1000 nM.

As to `Cc1ccc(CNC(=O)Cc2c(C)noc2C)c(F)c1`, the IC50 was 158 nM.

On to `Cc1cccc(CNC(=O)Cc2c(C)noc2C)c1C`, for which the IC50 is 200 nM.

In the case of `Cc1ccc(F)c(CNC(=O)Cc2c(C)noc2C)c1Cl`, the IC50 was 200 nM. The same measure for `Cc1ccccc1CNC(=O)Cc1c(C)n[nH]c1C`: 158 nM; for `Cc1noc(C)c1CC(=O)NCc1ccc(C(F)(F)F)c(F)c1`: 398 nM. The same measure for `Cc1noc(C)c1CC(=O)NCc1cccc(C(F)(F)F)c1F`: 31.6 nM. The same measure for `Cc1noc(C)c1CC(=O)NCc1cccc(Cl)c1F`: 200 nM. In the case of `Cc1noc(C)c1CC(=O)NCc1ccc(F)c(Cl)c1F`, the IC50 is 39.8 nM. For `Cc1noc(C)c1CC(=O)NCc1cccc(C(F)(F)F)c1C` the value was 10 nM. For `CCc1noc(CC)c1CC(=O)NCc1ccc(F)cc1Cl` the value was 39.8 nM; for `CC(C)c1noc(C(C)C)c1CC(=O)NCc1ccc(F)cc1Cl`, 158 nM; for `CCc1n[nH]c(CC)c1CC(=O)NCc1ccc(F)c(F)c1F`, 31.6 nM. For `CC(C)c1n[nH]c(C(C)C)c1CC(=O)NCc1ccc(F)c(F)c1F` the value was 158 nM.

On to `Cc1n[nH]c(C(F)(F)F)c1CC(=O)NCc1cccc(C(F)(F)F)c1Cl`, for which the IC50 was 2.51 nM. The same measure for `Cc1n[nH]c(C(F)(F)F)c1CC(=O)NCc1ccc(F)c(F)c1Cl`: 5.01 nM; for `Cc1n[nH]c(C)c1CC(=O)NCc1ccc(F)c(C(F)(F)F)c1`: 50.1 nM.
